The values that follow come from paper PMC11243693, “Synthesis and Biological Evaluation of New Compounds with Nitroimidazole Moiety” (Molecules, 2024).

In data set [1] the test system is normal and cancer cell lines. Nature of the data set: MTT assay, normal and cancer cell lines. It is filed as cell-based, human. Conditions: in words, 1 to 100 µM, 24 h. The procedure: Colon cancer (SW480), breast adenocarcinoma (MDA-MB-231), lung carcinoma (A-549), prostate cancer (PC3), and immortal keratinocyte (HaCaT) cell lines of human origin were acquired from the American Type Culture Collection (ATCC). The recommended culture media and protocols provided by ATCC were as follows: SW480 were cultured in Minimum Essential Medium (MEM), MDA-MB-231, A-549, and HaCaT cells were cultured in Dulbecco’s Modified Eagle Medium (DMEM), while PC3 was cultured in Roswell Park Memorial Institute Medium (RPMI). The culture media were supplemented with 10% fetal bovine serum (FBS), penicillin (100 U/mL), and streptomycin (100 μg/mL). Cells were maintained in a humidified incubator at 37 °C with 5% CO2. Passaging was carried out upon reaching 80–90% confluence using 0.25% trypsin (Gibco Life Technologies, New York, NY, USA) treatment prior to experimentation.
Cell viability was assessed utilizing the MTT assay, which relies on the conversion of 3-(4,5-dimethylthiazol-2-yl)-2,5-diphenyltetrazolium bromide salt (MTT) to formazan crystals by mitochondrial dehydrogenases in viable cells. […] The absorbance of the resulting solution was measured at 570 nm using a UVM 340 reader (ASYS Hitech GmbH, Seekirchen am Wallersee, Austria). IC50 values were determined using GraphPad software (GraphPad Prism 8 Software).

Data set [2] has as its system Bacillus subtilis ATCC 6633. Nature of the data set: Broth microdilution, B. subtilis ATCC 6633. Conditions: for MBC/MIC Ratio: <4 bactericidal, ≥4 bacteriostatic. The class given is cell-based. The procedure, abridged: (§1)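 Compounds are diluted twofold, starting at 1000 µg/mL, in Mueller-Hinton medium, supplemented with 2% glucose for the yeast strains. Wells then receive a tenfold-diluted 0.5 McFarland inoculum and incubate 18 ± 2 h at 35 ± 2 °C. Absorbance at 570 nm gives the MIC.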
A general note: Dilution methods test growth across graded concentrations, often in twofold steps.

Data set [3] relates to Candida lusitaniae ATCC 3449. Briefly: Broth microdilution, C. lusitaniae ATCC 3449. The class given is cell-based. The procedure, abridged:
(§2)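 EUCAST broth microdilution with twofold dilutions from a 1000 µg/mL starting solution, in Mueller-Hinton broth for B. cereus or Mueller-Hinton plus 2% glucose for Candida. Inoculum was a 10-fold diluted 0.5 McFarland suspension. After 18 ± 2 h at 35 ± 2 °C, MIC was read by A570; MBC/MFC by subculture showing 99.9% kill.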

For a further data set, the system named is Gram-positive bacteria. Briefly: Broth microdilution, Gram-positive bacteria. It is filed as cell-based. As to conditions: strains as named in the sentence. On the procedure:
The antibacterial activity of the obtained thiosemicarbazides and hydrazide–hydrazones was determined by evaluating their ability to inhibit microbial growth in vitro using the broth microdilution method, according to the guidelines of the European Committee on Antimicrobial Susceptibility Testing (EUCAST). The method involved the preparation of microbial suspensions with a standardized density of 0.5 on the McFarland scale (equivalent to 1.5 × 10^8 colony-forming units/mL for bacteria and […] for fungi). A solution of the test substances was then prepared (initial concentration 1000 µg/mL, diluted in sterile Mueller-Hinton broth for bacteria or Mueller-Hinton with 2% glucose for fungi). The test was carried out in 96-well polystyrene flat-bottom plates (Medlab, Poland) with 100 µL of appropriate sterile microbiological medium in each well. […] After incubation, the spectrophotometric absorbance at 570 nm in each well of the plate was read. […] The MBC value was determined by adding 5 µL of the contents of each well of the plate to solid sterile MHA or MHA + 2%glc medium for bacteria and fungi, respectively. […] In addition, the quotient MBC(MFC)/MIC could be determined to assess the nature of the activity of the test substance. […]

For data set [4], the system named is Bacillus cereus ATCC 10876. Nature of the data set: Broth microdilution, B. cereus ATCC 10876. The class given is cell-based. As to conditions: for MBC/MIC Ratio: <4 bactericidal, ≥4 bacteriostatic. Put shortly:
as §2

The test system of data set [5] is Candida krusei ATCC 14243. Briefly: Broth microdilution, C. krusei ATCC 14243. It is filed as cell-based. The procedure, abridged: as §2
In data set [6] the test system is Staphylococcus aureus ATCC 6538. Nature of the data set: Broth microdilution, S. aureus ATCC 6538. It is filed as cell-based. Put shortly:
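MIC: A570 after 18 ± 2 h, 35 ± 2 °C. Medium: MH broth (bacterium) or MH + 2% glucose (yeasts). Serial 2-fold dilutions of compound, top solution 1000 µg/mL. Inoculum: 0.5 McFarland suspension diluted 10×. MBC/MFC: subculture onto MHA or MHA + 2% glc, 99.9% growth inhibition.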

For a further data set, the system named is Candida spp. Nature of the data set: Broth microdilution, Candida spp. It is filed as cell-based. As to conditions: range over both strains and the listed compounds. Put shortly:
as §2

The test system of data set [7] is Candida parapsilosis ATCC 22019. Nature of the data set: Broth microdilution, C. parapsilosis ATCC 22019. It is filed as cell-based. Put shortly:
as §2

For data set [8], the system named is Candida tropicalis ATCC 1369. Briefly: Broth microdilution, C. tropicalis ATCC 1369. It is filed as cell-based. The procedure, abridged:
as §2

The subject of data set [9] is Staphylococcus aureus ATCC 43300 methicillin-resistant MRSA. Nature of the data set: Broth microdilution, S. aureus ATCC 43300 MRSA. It is filed as cell-based. The procedure, abridged:
as §1

Data set [10] has as its system Candida glabrata ATCC 15126. Nature of the data set: Broth microdilution, C. glabrata ATCC 15126. It is filed as cell-based. Put shortly: as §2
Data set [11] has as its system Staphylococcus epidermidis ATCC 12228. Nature of the data set: Broth microdilution, S. epidermidis ATCC 12228. The class given is cell-based. Put shortly:
as §1

For a further data set, the system named is Candida auris CDC B11903. Briefly: Broth microdilution, C. auris CDC B11903. It is filed as cell-based. The procedure, abridged:
as §2

For data set [12], the system named is Staphylococcus aureus ATCC 25923. Nature of the data set: Broth microdilution, S. aureus ATCC 25923. It is filed as cell-based. Put shortly: as §1
For data set [13], the system named is Candida glabrata ATCC 90030. Briefly: Broth microdilution, C. glabrata ATCC 90030. The class given is cell-based. Put shortly:
as §2

Data set [14] deals with Micrococcus luteus ATCC 10240. Briefly: Broth microdilution, M. luteus ATCC 10240. As to conditions: for MBC/MIC Ratio: <4 bactericidal, ≥4 bacteriostatic. It is filed as cell-based. Put shortly: as §1
Setting [15] is: Staphylococcus epidermidis, ATCC12228.
Setting [16] is: Staphylococcus aureus, ATCC25923.

In brackets after ≈: the same amount, converted by molar mass.

For orientation: melting point means the temperature, or range, at which the solid turns liquid. In the case of `COc1cc(O)ccc1C=NNC(=O)c1nc([N+](=O)[O-])cn1C` [Compound 33, N’-[(4-hydroxy-2-methoxyphenyl)methylidene]-1-methyl-4-nitro-1H-imidazole-2-carbohydrazide], the melting point is 233 to 235 °C. For the same compound, the “cytotoxic potential on normal and cancer cell lines” value in data set [1] is recorded as “did not show cytotoxic activity”.
What is called MBC is the smallest concentration meeting the test's criterion for killing. The term MIC denotes the lowest concentration that inhibits growth of the organism. Lower therefore signals a more susceptible organism. By MFC is commonly meant the lowest tested concentration that kills the fungus rather than only halting it. Turning to `Cn1cc([N+](=O)[O-])nc1C(=O)NNC(=S)Nc1ccc(C(F)(F)F)cc1` [Compound 14], the MBC in [2] (Bs 6633) is on record as 31.25 µg/mL (≈ 80.5 µM); in data set [4] (Bc 10876), 250 µg/mL (≈ 644 µM); in [6] (Sa 6538), 1000 µg/mL (≈ 2580 µM); in data set [9] (Sa 43300 MRSA) it was 500 µg/mL (≈ 1290 µM); in data set [11] (Se 12228), 500 µg/mL (≈ 1290 µM); in [12] (Sa 25923), above 1000 µg/mL. Also, the MBC in data set [14] (Ml 10240) is 500 µg/mL (≈ 1290 µM). Also, the MIC was 31.25 µg/mL (≈ 80.5 µM) in data set [2] (Bs 6633); above 1000 µg/mL in [3] (Cl 3449); 31.25 µg/mL (≈ 80.5 µM) in data set [4] (Bc 10876); above 1000 µg/mL in data set [5] (Ck 14243); 62.5 µg/mL (≈ 161 µM) in [6] (Sa 6538); above 1000 µg/mL in data set [7] (Cp 22019). Further, the MIC in data set [8] (Ct 1369) is listed as 500 µg/mL (≈ 1290 µM); in data set [9] (Sa 43300 MRSA), 62.5 µg/mL (≈ 161 µM); in data set [10] (Cg 15126), above 1000 µg/mL; in data set [11] (Se 12228), 31.25 µg/mL (≈ 80.5 µM); against Candida auris CDC B11903 (Ca B11903), above 1000 µg/mL; in data set [12] (Sa 25923) it was 31.25 µg/mL (≈ 80.5 µM). For the same compound, the MIC is on record as above 1000 µg/mL in [13] (Cg 90030) and 62.5 µg/mL (≈ 161 µM) in data set [14] (Ml 10240). Further, the “MBC/MIC Ratio” value in [2] (Bs 6633) was found to be 1; in data set [4] (Bc 10876), 8; in data set [11] (Se 12228, <4 bactericidal, ≥4 bacteriostatic) it was 16; in data set [14] (Ml 10240), 8. Further, the “MIC (range or value for several Gram-positive strains)” value in the data set with Gram-positive bacteria is recorded as 31.25 to 62.5 µg/mL. Further, the “MBC (range, C. parapsilosis ATCC 22019 and C. tropicalis ATCC 1369)” value against Candida spp. lay within 500 to 1000 µg/mL. The “MIC (range, C. parapsilosis ATCC 22019 and C. tropicalis ATCC 1369)” value against Candida spp. fell in the range of 62.5 to 1000 µg/mL. Further, the MFC in [8] (Ct 1369) came to 500 µg/mL (≈ 1290 µM). Besides, the “MFC/MIC Ratio” value in [8] (Ct 1369, <4 fungicidal, ≥4 fungistatic) was found to be 1.
Take `Cn1cc([N+](=O)[O-])nc1C(=O)NNC(=S)Nc1ccc([N+](=O)[O-])cc1` [Compound 18, 1-[(1-methyl-4-nitroimidazol-2-yl)carbonyl]-4-(4-nitrophenyl)-thiosemicarbazide]: the MBC was 1000 µg/mL (≈ 2740 µM) in [2] (Bacillus subtilis, ATCC6633); 1000 µg/mL (≈ 2740 µM) in data set [4] (Bacillus cereus, ATCC10876); above 1000 µg/mL in data set [11] (setting [15]); above 1000 µg/mL in [12] (setting [16]); 1000 µg/mL (≈ 2740 µM) in [14] (Micrococcus luteus, ATCC10240). In addition, the MIC was 1000 µg/mL (≈ 2740 µM) in [2] (Bacillus subtilis, ATCC6633); above 1000 µg/mL in data set [3] (Clavispora lusitaniae, ATCC3449); 1000 µg/mL (≈ 2740 µM) in data set [4] (Bacillus cereus, ATCC10876); above 1000 µg/mL in data set [5] (Pichia kudriavzevii, ATCC14243); above 1000 µg/mL in data set [6] (Staphylococcus aureus, ATCC6538); above 1000 µg/mL in [7] (Lodderomyces parapsilosis, ATCC22019). Besides, the MIC in data set [8] (Candida tropicalis, ATCC1369) is 500 µg/mL (≈ 1370 µM); in data set [9] (Staphylococcus aureus), above 1000 µg/mL; in data set [10] (Nakaseomyces glabratus, ATCC15126) it was above 1000 µg/mL; in data set [11] (setting [15]), 1000 µg/mL (≈ 2740 µM); with Candida auris CDC B11903 (Candidozyma auris, CDCB11903) it was above 1000 µg/mL; in data set [12] (setting [16]) it was 500 µg/mL (≈ 1370 µM). Besides, the MIC is above 1000 µg/mL in data set [13] (Nakaseomyces glabratus, ATCC90030) and 500 µg/mL (≈ 1370 µM) in [14] (Micrococcus luteus, ATCC10240). Moreover, the “MBC/MIC Ratio” value amounted to 1 in [2] (Bs 6633), 1 in data set [4] (Bc 10876) and 2 in data set [14] (Ml 10240). In addition, the “MIC (range or value for several Gram-positive strains)” value in the data set with Gram-positive bacteria lay in the range of 500 to 1000 µg/mL. The compound further gave an MFC in [8] (Candida tropicalis, ATCC1369) above 1000 µg/mL.
`COc1cc(C=NNC(=O)c2nc([N+](=O)[O-])cn2C)ccc1O` [Compound 32, N’-[(4-hydroxy-3-methoxyphenyl)methylidene]-1-methyl-4-nitro-1H-imidazole-2-carbohydrazide]: the melting point fell in the range of 241 to 243 °C. Moreover, the “cytotoxic potential on normal and cancer cell lines” value in data set [1] is given as “did not show cytotoxic activity”.
